The source of these data is US20020115642A1, “Beta-lactam antibiotics” (priority 2000, published 2002).

≈ marks a conversion by molar mass, not a printed value.

In one assay the test system is E. aerogenes. The experiment in a line: Susceptibility testing (MIC, modified NCCLS method). The settings on record: E. aerogenes (5). It is filed as cell-based, Enterobacter aerogenes. In short, it runs like this: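 Readout OD600 increase. Compounds (aqueous or DMSO stocks) serially diluted 2-fold across 20 concentrations, then inoculated with bacterial broth culture to final ~1-1.5×10^6 cells/ml; screening-adapted NCCLS microdilution.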

The test system of the next assay is H. influenzae. Described as above. The assay is classed as cell-based, Haemophilus influenzae. The settings on record: H. influenzae (4). The procedure:
The NCCLS (National Committee for Clinical Laboratory Standards) method to determine MIC's of antimicrobial compounds was modified for high-throughput screening. All stocks of tested compounds were prepared in either water or in dimethylsulfoxide (DMSO), depending on the solubility. […] Briefly 20 2-fold serial dilutions of testing compounds from the highest concentration were made in a 384-well microtiter plate. Each well was inoculated with testing bacteria in broth to a final concentration of approximately 1-1.5×10^6 cells/ml. Bacterial growth was determined by the increase of optical density at 600 nm using a microplate reader (Tecan SpectraFluor Plus).

As to `O=C(Cc1cccs1)N[C@@H]1C(=O)N2C(C(=O)O)=C(COc3cc(Cl)ccc3Oc3ccc(Cl)cc3Cl)CS[C@H]12` [Compound 9, 3-(2-(2,4-Dichlorophenoxy)-5-chlorophenoxy)methyl-7-(2-thienylacetamido)-3-cephem-4-carboxylic acid], the MIC range in the assay on E. aerogenes is 0.5 to 8 µg/mL; with H. influenzae it was 0.0075 to 0.061 µg/mL. The MIC with E. aerogenes (Klebsiella aerogenes, read-out: GM* MIC (geometric mean)) amounted to 3.36 µg/mL (≈ 5.37 µM); with H. influenzae (Haemophilus influenzae, read-out: GM* MIC (geometric mean)), 0.015 µg/mL (≈ 0.024 µM).
